{
  "source": "patent US20150342959A1",
  "about": "“METHODS AND COMPOSITIONS FOR SUSTAINED N[…]” (DemeRx, Inc., priority 2014, published 2015)",
  "key": {"[1]": {"test_system": "healthy, drug-free male volunteers", "experiment": "Pupillometry (pupillary miosis, dark-adapted pupil diameter)", "format": "in vivo, human", "details": "adjusted for baseline, p>0.9", "procedure": "(§1) Pulse oximetry and capnography data were collected continuously using a GE Carescape B650 monitoring system from 2 hours prior to dosing and until six hours after dosing, and thereafter at 12, 24, 48 and 72 hours post-dosing. Additional oximetry data were collected at 120, 168 and 216 hours. Pupillary miosis was assessed by pupillometry. Dark-adapted pupil diameter was measured in triplicate using a Neuroptics PLR-200 pupillometer under standardized light intensity (<5 lux) pre-dose, and at 2, 4, 6, 12, 24, 48, 72, 96, 120, 168 and 216 hours post-dosing.\n(§2) Summary statistics (means, standard deviations, and coefficients of variation) were determined for each dose group for safety laboratory test data, ECG and pharmacokinetic parameters, and pharmacodynamic variables. Categorical variables were analysed using counts and percentages. Dose-proportionality of AUC and Cmax was assessed using linear regression. The effect of dose on pharmacodynamic parameter values over time was assessed using two-factor analysis of variance (ANOVA). Pairwise comparisons (with Tukey-Kramer adjustment) between each dose group to the placebo were conducted at each time point using the least squares estimates obtained from the ANOVA, using SAS Proc Mixed (SAS ver 6.0)."}, "[2]": {"test_system": "healthy, drug-free male volunteers", "experiment": "Cold pressor test (analgesic effect)", "format": "in vivo, human", "details": "adjusted for baseline", "procedure": "as §2\nAnalgesic effect was assessed based on duration of hand immersion in ice water and on visual analog scale (VAS) pain scores upon hand removal from the water bath.\n(§3) Safety and tolerability of noribogaine were tested in the group of volunteers from Example 1. Cold pressor testing was conducted in 1° C. water according to the method of Mitchell et al. (J Pain 5:233-237, 2004) pre-dose, 6, 24, 48, 72 and 216 hours post-dosing. Safety evaluations included clinical monitoring, recording of adverse events (AEs), safety laboratory tests, vital signs, ECG telemetry from −2 h to 6 h after dosing, and 12-lead electrocardiograms (ECGs) up to 216 hours post-dosing."}, "[3]": {"test_system": "healthy, drug-free male volunteers", "experiment": "Safety and tolerability of noribogaine in healthy humans (adverse events, vital signs, ECG)", "format": "in vivo, human", "procedure": "as §1, §3"}, "[4]": {"test_system": "opioid-dependent participants", "experiment": "Time to resumption of morphine (opioid substitution treatment, OST)", "format": "in vivo, human"}, "[5]": {"test_system": "opioid-dependent participants", "experiment": "Opiate withdrawal scales (COWS, SOWS, OOWS)", "format": "in vivo, human", "details": "first six hours following dosing", "procedure": "Patients were evaluated based on the Clinical Opiate Withdrawal Scale (COWS), Subjective Opiate Withdrawal Scale (SOWS), and Objective Opiate Withdrawal Scale (OOWS) scoring systems over the period of time between administration of noribogaine (or placebo) until resumption of OST. These scales are outlined in Guidelines for the Psychosocially Assisted Pharmacological Treatment of Opioid Dependence, World Health Organization, Geneva (2009), Annex 10, which is incorporated herein by reference in its entirety. The scales measure the intensity of withdrawal symptoms, based on clinical, subjective, and objective indicia."}, "[6]": {"experiment": "Pharmacokinetics in opioid-dependent patients (Phase IB study, serum noribogaine)", "details": "60, 120, 180 mg"}},
  "data": [
    {"smiles": "CC[C@H]1CC2C[C@H]3c4[nH]c5ccc(O)cc5c4CCN(C2)C13", "note": "[noribogaine]", "values": [
      {"measurement": "pupil diameter, each dose group vs placebo by ANOVA", "setting": "[1]", "result": "no statistically significant differences"},
      {"measurement": "VAS pain scores, each dose group vs placebo by ANOVA", "setting": "[2]; p=0.17", "result": "no statistically significant differences"},
      {"measurement": "duration of hand immersion, each dose group vs placebo by ANOVA", "setting": "[2]; p>0.9", "result": "no statistically significant differences"},
      {"measurement": "adverse events reported", "setting": "[3]; 3 mg dose group", "result": "five adverse events were reported by two subjects"},
      {"measurement": "adverse events reported", "setting": "[3]; 10 mg dose group", "result": "one adverse event was reported by single subjects"},
      {"measurement": "adverse events reported", "setting": "[3]; 30 mg dose group", "result": "one adverse event was reported by single subjects"},
      {"measurement": "changes in oximetry, capnography, respiratory rate", "setting": "[3]; 3-60 mg", "result": "no changes in oximetry or capnography, or changes in respiratory rate"},
      {"measurement": "changes in vital signs or safety laboratory tests", "setting": "[3]; 3-60 mg", "result": "no changes in vital signs or safety laboratory tests of note"},
      {"measurement": "Time to resumption of OST", "setting": "[4]; 180 mg, longer than untreated patients (7 hours, not shown) or 60 mg", "result": "> 7", "unit": "h"},
      {"measurement": "average time to resumption of opioids", "setting": "[4]; single 120 mg dose", "result": "greater than 20 hours"},
      {"measurement": "withdrawal symptoms (COWS, OOWS, SOWS)", "setting": "[5]; 120 mg", "result": "fewer withdrawal symptoms than the other patients"},
      {"measurement": "withdrawal symptoms, noribogaine vs placebo", "setting": "[5]; 60, 120, 180 mg", "result": "placebo generally experienced more withdrawal symptoms than patients who were administered noribogaine"},
      {"measurement": "Maximum serum concentration of noribogaine (Cmax), dose dependence", "setting": "[6]", "result": "increased in a dose-dependent manner"}
    ]}
  ]
}
